Data: publication PMC9661718, “Identification of Inhibitors of the Schistosoma mansoni VKR2 Kinase Domain” (ACS Medicinal Chemistry Letters, 2022)
“Also recorded” adds a separate entry of the source.

Legend:
adult S. mansoni worms = test: Ex vivo adult S. mansoni phenotypic screen (descriptors and severity scores); set-up: species or system Schistosoma mansoni; key to Descriptors 2 h / Descriptors 5 h / Descriptors 24 h: degenerating (deg); uncoordinated (unc); slow (S); on sides, inability of worms to adhere to well floor with either the oral or ventral sucker; teg bleb, damage to the surface tegument; conditions: 10 μM compound; for Descriptors 2 h / Descriptors 5 h / Descriptors 24 h: ex vivo adult worms
Procedure: The 12 compounds identified from the SPR screen were tested against ex vivo adult S. mansoni worms to investigate whether they induce phenotypic alterations in the parasite. Compound effects at 10 μM were assessed at 2, 5, and 24 h, and activity was partially quantified using an observation-based severity scoring system that is designed to holistically assess the many different responses to chemical insult of which the schistosome is capable.[26],[27] For those compounds eliciting phenotypic changes, WormAssay was also employed as an additional readout to measure average worm motility per well.[28],[29] Four compounds, GW696155, GSK986310, GSK1520489, and SB-710363, produced a variety of effects in the worm (Figure 1; Table 2; Table S1). GW696155 generated the strongest responses. […] Although, SPR identified 12 compounds against the SmVKR2KD (Table 1), the absence of phenotypic activity for eight of these compounds (Table S2) could be due to their poor uptake by the parasite. It is also possible that the phenotypic changes noted for the four active compounds are only partially related or unrelated to engagement of the SmVKR2 target. […]
Preparation of S. mansoni
The acquisition, preparation and in vitro maintenance of S. mansoni have been described 11, 12.
We use a Naval Medical Research Institute (NMRI) isolate of S. mansoni that is cycled between Biomphalaria glabrata snails and male Golden Syrian hamsters (infected at 4-6 weeks of age) as intermediate and definitive hosts, respectively. Briefly, adult worms were harvested from hamsters 42 days post-infection in RPMI or DMEM, and washed five times prior to maintenance overnight at 37 °C and 5% CO2 in Basch medium 13 containing 4% heat-inactivated FBS, 100 μg/ml streptomycin and 100 U/ml penicillin. activity against adult Ex vivoS. mansoni
Ex vivo screens with adults employed 24-well flat-bottomed plates and approximately five males, two to three of which were paired to females. Screens incorporated a final compound concentration of 10 μM in DMSO (0.5% final concentration). The complex and often dynamic phenotypic responses that the schistosome parasite is capable of were observed using a Zeiss Axiovert A1 inverted microscope at 2, 5 and 24 h. Observations were classified using a constrained nomenclature that involves simple “descriptors” to convey changes in shape, motility and appearance, and the inability of the male worm to adhere to the bottom of the well, compared to DMSO controls 11, 14, 15. Each descriptor was given a value of 1 and these were added up to yield a “severity score” with a maximum of 4. Evidence of degeneracy or death was awarded a value of 4 as was damage to the tegument (surface), on the understanding this would compromise survival in vivo. Scores were averaged across 3-5 individual experiments.

SmVKR1 = test system: SmVKR1; set-up: method as in PMID 23696913; conditions: cited from earlier work
SmVKR2 = test system: SmVKR2; set-up: method as in PMID 23696913; conditions: cited from earlier work
schistosomes = test system: schistosomes; set-up: method as in PMID 23696913; conditions: cited from earlier work
adult S. mansoni = test: WormAssay average worm motility per well; set-up: species or system Schistosoma mansoni; conditions: 10 μM compound, 2, 5 and 24 h
Procedure: The 12 compounds identified from the SPR screen were tested against ex vivo adult S. mansoni worms to investigate whether they induce phenotypic alterations in the parasite. Compound effects at 10 μM were assessed at 2, 5, and 24 h, and activity was partially quantified using an observation-based severity scoring system that is designed to holistically assess the many different responses to chemical insult of which the schistosome is capable.[26],[27] For those compounds eliciting phenotypic changes, WormAssay was also employed as an additional readout to measure average worm motility per well.[28],[29] Four compounds, GW696155, GSK986310, GSK1520489, and SB-710363, produced a variety of effects in the worm (Figure 1; Table 2; Table S1). GW696155 generated the strongest responses. […] Although, SPR identified 12 compounds against the SmVKR2KD (Table 1), the absence of phenotypic activity for eight of these compounds (Table S2) could be due to their poor uptake by the parasite. It is also possible that the phenotypic changes noted for the four active compounds are only partially related or unrelated to engagement of the SmVKR2 target.
Figure 1 Changes in the average motility of adult S. mansoni as a function of time, as measured by WormAssay. Significance was determined by Student’s t-test (two-tailed): *P < 0.05, **p < 0.005, ***P < 0.0005. Data were derived from three to five biological assays with 10 μM compound. […]
The assay was performed according to the manufacturer’s recommendations without any modifications. The optimal concentration of the SmVKR2KD in the assay was established as µM. The autophosphorylation activity was measured at an ATP concentration of […] to aid the identification of competitive inhibitors as recommended by the ADP-Glo Kinase Assay (Promega) protocol. The autophosphorylation activity of the SmVKR2KD was measured in the presence and absence of inhibitors at various concentrations. […] The luminescence was measured using a CLARIOstar plate reader. […]

Row | SMILES | Descriptors 2 h (adult S. mansoni worms) | Severity scores 2 h (adult S. mansoni worms; maximum score 4) | Descriptors 5 h (adult S. mansoni worms) | Severity scores 5 h (adult S. mansoni worms; maximum score 4) | Descriptors 24 h (adult S. mansoni worms) | Severity scores 24 h (adult S. mansoni worms; maximum score 4) | inhibition of SmVKR1 (SmVKR1) | inhibition of SmVKR2 (SmVKR2) | apoptosis and egg production in schistosomes (schistosomes) | average worm motility (WormAssay) (adult S. mansoni) | severity score (adult S. mansoni worms; time not given, maximum score 4) | phenotypic activity assessed visually (adult S. mansoni worms; time not stated)
1 | CS(=O)(=O)Nc1ccc(-c2ccnc3[nH]ccc23)cc1 [GSK993273] | none | 0 | none | 0 | none | 0 | – | – | – | – | – | –
2 | CC(C)(C)c1cc(C=C(C#N)C#N)cc(Br)c1O [tyrphostin AG1024] | – | – | – | – | – | – | inhibited | inhibited | concentration-dependent apoptosis and cessation of egg production | – | – | –
3 | Cc1cccc(Nc2nc(N[C@H]3CCCC[C@H]3N)ncc2C(N)=O)c1 [GSK986310] | S | 1 | S | 1 | S | 1 | – | – | – | milder effect in decreasing worm movement | 1 | –
4 | Nc1n[nH]c2cnc(-c3ccccc3)cc12 [SB-642124] | none | 0 | none | 0 | none | 0 | – | – | – | – | – | –
5 | Nc1nc(N)c2[nH]c(-c3ccccc3)nc2n1 [SKF-12778] | none | 0 | none | 0 | none | 0 | – | – | – | – | – | –
6 | Cc1n[nH]c2cc(Nc3ccnc(Nc4cccc(CN5CCOCC5)c4)n3)ccc12 [GW682569] | none | 0 | none | 0 | none | 0 | – | – | – | – | – | –
7 | CNC(=O)c1ccccc1Nc1nc(Nc2cccc(CS(C)(=O)=O)c2)ncc1C [GSK1520489] | unc | 1 | unc | 1 | unc | 1 | – | – | – | without a long-term decrease in average motility | – | mild uncoordinated motility
8 | NCCNS(=O)(=O)c1ccc(-c2ccnc3[nH]ccc23)cc1 [GSK977617] | none | 0 | none | 0 | none | 0 | – | – | – | – | – | –
9 | CN(C)CCNS(=O)(=O)c1ccc(-c2ccnc3[nH]ccc23)cc1 [GSK977620] | none | 0 | none | 0 | none | 0 | – | – | – | – | – | –
10 | Cc1cccc(Nc2nc(NCCN)ncc2C(N)=O)c1 [GSK1292139] | none | 0 | none | 0 | none | 0 | – | – | – | – | – | –
11 | CC(C)Oc1ccc2c(-c3ccnc(Nc4ccc(N5CCN(C)CC5)cc4)n3)cnn2n1 [GW696155] | decreased motility and lost their ability to adhere to the floor of the well; also recorded: S, on sides | 2 | Dark, S, on sides | 3 | worm degeneration and damage to the surface tegument in the form of blebs or bubbles; also recorded: Deg, S, on sides, teg bleb | 4 | – | – | – | decrease in average worm motility over time | – | –
12 | NC(=O)Nc1sc(-c2ccc(F)cc2)cc1C(N)=O [GW789449] | none | 0 | none | 0 | none | 0 | – | – | – | – | – | –
